The test system of assay [1] is IL-1β production in PMA-differentiated THP-1 cells. The assay is described as follows: Measurement of IL-1β production in PMA-differentiated THP-1 cells (ELISA, 4 hours). The class given is cell-based, human. The following applies: assayed using one or more of the described procedures, read-out: NLRP3 hIL1B IC50. As to the method:
Measurement of IL-1β Production in PMA-Differentiated THP-1 Cells THP-1 cells were purchased from the American Type Culture Collection and sub-cultured according to instructions from the supplier. Prior to experiments, cells were cultured in RPMI 1640 containing 10% heat inactivated FBS, penicillin (100 units/ml) and streptomycin (100 μg/ml), and maintained in log phase prior to experimental setup. Prior to the experiment THP-1 were treated with PMA (Phorbol 12-myristate 13-acetate) (10 μg/ml) for 24 hours. The day of the experiment the media was removed and attaching cells were treated with trypsin for 2 minutes, cells were then collected, washed with PBS (phosphate buffer saline), spin down, resuspended in 2% heat inactivated FBS with RPMI at a concentration of 1×10^6 cells/ml, and 100 μl was plated in a 96 well plate. Compounds were dissolved in dimethyl sulfoxide (DMSO) and added to the culture medium to achieve desired concentration (e.g. 100, 30, 10, 3, 1, 0.3 or 0.1 μM). Cells were incubated with compounds for 4 hours. Cell free supernatant was collected and the production of IL-1β was evaluated by ELISA. A vehicle only control was run concurrently with each experiment. Final DMSO concentration was 1%.

Another assay has as its target T1, human TLR7 (Homo sapiens, UniProt Q9NYK1).
T1 construct: host or cells: human HEK-Blue cells (HEK293-derived) co-expressing TLR7 and an NF-kB/AP1-inducible SEAP reporter
T1 sequence (Q9NYK1 27-1049): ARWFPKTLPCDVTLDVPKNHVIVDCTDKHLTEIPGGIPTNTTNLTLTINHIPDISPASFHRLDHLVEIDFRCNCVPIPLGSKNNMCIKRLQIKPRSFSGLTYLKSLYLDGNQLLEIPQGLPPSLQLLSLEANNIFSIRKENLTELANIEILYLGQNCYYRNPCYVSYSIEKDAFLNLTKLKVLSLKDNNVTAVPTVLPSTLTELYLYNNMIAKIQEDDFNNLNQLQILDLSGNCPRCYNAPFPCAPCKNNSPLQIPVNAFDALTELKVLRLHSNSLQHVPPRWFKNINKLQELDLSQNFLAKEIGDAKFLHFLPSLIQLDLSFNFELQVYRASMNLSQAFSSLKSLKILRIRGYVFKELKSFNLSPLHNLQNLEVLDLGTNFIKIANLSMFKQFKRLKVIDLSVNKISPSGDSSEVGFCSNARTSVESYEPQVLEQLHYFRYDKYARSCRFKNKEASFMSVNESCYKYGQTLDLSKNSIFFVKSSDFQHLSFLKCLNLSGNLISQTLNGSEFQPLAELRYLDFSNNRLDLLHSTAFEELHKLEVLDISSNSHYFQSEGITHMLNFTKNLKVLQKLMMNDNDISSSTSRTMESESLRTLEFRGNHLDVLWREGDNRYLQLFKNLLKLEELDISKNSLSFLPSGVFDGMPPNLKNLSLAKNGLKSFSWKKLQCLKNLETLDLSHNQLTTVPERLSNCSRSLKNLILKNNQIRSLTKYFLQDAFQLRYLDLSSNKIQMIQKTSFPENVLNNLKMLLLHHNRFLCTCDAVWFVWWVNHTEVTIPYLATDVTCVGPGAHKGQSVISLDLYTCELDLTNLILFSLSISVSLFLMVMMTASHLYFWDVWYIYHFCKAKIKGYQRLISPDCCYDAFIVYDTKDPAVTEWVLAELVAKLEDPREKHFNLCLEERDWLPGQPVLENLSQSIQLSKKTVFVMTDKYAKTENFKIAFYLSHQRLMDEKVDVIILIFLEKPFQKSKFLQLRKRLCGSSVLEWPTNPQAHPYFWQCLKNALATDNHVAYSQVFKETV
The assay is described as follows: In vitro human TLR7 binding reporter assay (HEK-Blue, NF-kB/AP1-inducible SEAP). It counts as cell-based. As to conditions: HEK-Blue human TLR7 SEAP reporter cells; activity range classes; read-out: TLR7 Agonist EC50. As to the method: (§1) In Vitro Human TLR7 and TLR8 Binding Reporter Assays
(§2) Logarithmically-growing human HEK-Blue cells co-expressing a TLR7 or TLR8 gene and a NF-kB/AP1-inducible SEAP (secreted embryonic alkaline phosphatase; Invivogen, San Diego, CA) reporter gene are added to individual wells of a 384-well plate (15,000 cells per 20 μL per well) and maintained for 24 h at 37° C., 5% CO2. Test compounds or DMSO are distributed to separate wells the next day using acoustic liquid handling technology (100 nL per well) and cells are subsequently incubated for 18 h at 37° C., 5% CO2. Cellular SEAP production is measured using an Envision plate reader instrument thirty minutes after adding freshly-made Quanti-Blue reagent (prepared by following manufacturer instructions; Invivogen, San Diego, CA) to the HEK-Blue TLR Nf-kB-SEAP cell reactions. All EC50 values (half-maximal effective concentration) are determined using proprietary data analysis software. Normalized EC50 value=absolute value determined by setting 100% Ymax using a reference standard RLU (relative light unit) values from cells treated with 50 μM of the reference standard.
(In a reporter assay the amount or activity of a reporter protein is the signal.)

The target in the next assay is T2, human TLR8 (Homo sapiens, UniProt Q9NR97).
T2 construct: host or cells: human HEK-Blue cells (HEK293-derived) co-expressing TLR8 and an NF-kB/AP1-inducible SEAP reporter
T2 sequence (Q9NR97 27-1041): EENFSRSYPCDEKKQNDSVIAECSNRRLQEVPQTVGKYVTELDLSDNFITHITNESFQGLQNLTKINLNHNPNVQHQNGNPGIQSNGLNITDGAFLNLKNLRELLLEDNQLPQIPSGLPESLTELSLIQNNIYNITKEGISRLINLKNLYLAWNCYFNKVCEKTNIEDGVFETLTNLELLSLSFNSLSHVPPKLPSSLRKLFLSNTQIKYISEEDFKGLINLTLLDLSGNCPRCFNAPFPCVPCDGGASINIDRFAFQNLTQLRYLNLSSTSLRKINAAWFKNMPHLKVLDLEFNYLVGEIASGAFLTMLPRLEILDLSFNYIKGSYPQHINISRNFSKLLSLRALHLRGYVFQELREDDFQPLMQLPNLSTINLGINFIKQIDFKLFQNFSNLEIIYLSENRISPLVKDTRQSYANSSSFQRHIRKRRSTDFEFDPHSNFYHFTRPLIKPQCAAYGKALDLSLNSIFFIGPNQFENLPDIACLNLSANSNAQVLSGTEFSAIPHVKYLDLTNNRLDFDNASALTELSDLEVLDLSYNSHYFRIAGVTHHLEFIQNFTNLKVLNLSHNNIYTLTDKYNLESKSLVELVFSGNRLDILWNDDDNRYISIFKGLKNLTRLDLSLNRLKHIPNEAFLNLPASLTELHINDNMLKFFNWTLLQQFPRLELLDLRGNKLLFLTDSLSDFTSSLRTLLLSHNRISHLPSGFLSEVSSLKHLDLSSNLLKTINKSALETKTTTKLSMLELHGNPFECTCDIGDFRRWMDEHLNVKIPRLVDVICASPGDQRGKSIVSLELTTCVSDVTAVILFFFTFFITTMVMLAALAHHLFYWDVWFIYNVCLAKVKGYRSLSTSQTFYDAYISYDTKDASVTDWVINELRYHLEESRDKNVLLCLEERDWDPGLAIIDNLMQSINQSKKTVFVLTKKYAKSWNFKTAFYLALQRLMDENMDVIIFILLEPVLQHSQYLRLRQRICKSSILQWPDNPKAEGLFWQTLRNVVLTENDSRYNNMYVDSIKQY
The experiment in a line: In vitro human TLR8 binding reporter assay (HEK-Blue, NF-kB/AP1-inducible SEAP). The class given is cell-based. The following applies: HEK-Blue human TLR8 SEAP reporter cells; activity range classes; read-out: TLR8 Agonist EC50. As to the method: as §1, §2

Setting [2] is: Homo sapiens, THP-1, human IL-1β production.

Read-outs that look alike come from different tables or passages of the source. Bounds are passed on as bounds.

In general, IC50 refers to the midpoint of a concentration-inhibition curve. By EC50 is commonly meant the concentration giving half of the maximal effect.

As to “3-[4-amino-7-(1H-pyrazol-3-yl)-[1,3]oxazolo[4,5-c]quinolin-2-yl]propan-1-ol [Compound 107]”, the IC50 in assay [1] (human IL-1β production) was determined as 0.34 µM. The EC50 at human TLR7 and on human TLR8 was greater than 100 µM each time.

As for `Nc1cc(N[C@H]2CCCC[C@H]2O)c2ccc(-c3ccn[nH]3)cc2n1` (racemic) [Compound 157], the IC50 in assay [1] (human IL-1β production) was 0.73 µM. The EC50 on human TLR7 and at human TLR8 was greater than 100 µM throughout.

As to `Nc1cc(O[C@H]2COC[C@H]2O)c2ccc(-c3ccn[nH]3)cc2n1` (racemic) [Compound 197], the IC50 in assay [1] (setting [2]) came out at 2.86 µM. The EC50 at human TLR7 and on human TLR8 was greater than 100 µM throughout.

In the case of `Nc1cc(NC2CCNC2)c2ccc(-c3ccn[nH]3)cc2n1` (stereo in doubt) [Compound 321, (S)-7-(1H-pyrazol-3-yl)-N4-(pyrrolidin-3-yl)quinoline-2,4-diamine], the IC50 in assay [1] (human IL-1β production) is 11.6 µM. For the same compound, the EC50 at human TLR7 and on human TLR8 was greater than 100 µM throughout.

Consider `Nc1nc2cc(-c3cc[nH]n3)ccc2cc1CCCCCO` [Compound 101, 5-[2-amino-7-(1H-pyrazol-3-yl)quinolin-3-yl]pentan-1-ol], for which the IC50 in assay [1] (setting [2]) came to 0.79 µM. Moreover, the EC50 on human TLR7 and at human TLR8 was greater than 100 µM in each case.

For `Nc1nc2cc(-c3cc[nH]n3)ccc2cc1CCCCO` [Compound 102, 4-[2-amino-7-(1H-pyrazol-3-yl)quinolin-3-yl]butan-1-ol], in assay [1] (setting [2]), the IC50 is 1.38 µM. Besides, the 50% effective concentration (EC50) on human TLR7 and on human TLR8 was greater than 100 µM throughout.

Take `Nc1nc2cc(-c3cc[nH]n3)ccc2cc1CCCO` [Compound 103, 3-[2-amino-7-(1H-pyrazol-3-yl)quinolin-3-yl]propan-1-ol]: the IC50 in assay [1] (setting [2]) was determined as 1.6 µM. The EC50 on human TLR7 and at human TLR8 was greater than 100 µM throughout.

`Nc1nc2cc(-c3cc[nH]n3)ccc2cc1CCCOCc1ccccc1` [Compound 104, 3-[3-(benzyloxy)propyl]-7-(1H-pyrazol-3-yl)quinolin-2-amine]: the IC50 in assay [1] (setting [2]) came out at 0.69 µM. Besides, the EC50 on human TLR7 and at human TLR8 was greater than 100 µM in each case.

`Nc1nc2cc(-c3cc[nH]n3)ccc2cc1CCCCOCc1ccccc1` [Compound 105, 3-[4-(benzyloxy)butyl]-7-(1H-pyrazol-3-yl)quinolin-2-amine]: in assay [1] (setting [2]), the IC50 was determined as 2.98 µM. For the same compound, the EC50 at human TLR7 and at human TLR8 was greater than 100 µM in each case.

Regarding `Nc1cc(CCCOCc2ccccc2)c2ccc(-c3cc[nH]n3)cc2n1` [Compound 108, 4-[3-(benzyloxy)propyl]-7-(1H-pyrazol-3-yl)quinolin-2-amine], in assay [1] (setting [2]), the IC50 came out at 1.15 µM.

For the compound `Nc1nc2cc(-c3ccn[nH]3)ccc2cc1CNCC1CCCO1` (stereo not drawn) [Compound 117], the IC50 in assay [1] (setting [2]) was found to be 5.8 µM.

In the case of `Nc1nc2cc(-c3ccn[nH]3)ccc2cc1C1(CO)CC1` [Compound 120], in assay [1] (setting [2]), the IC50 was determined as 4.24 µM.

For `Nc1nc2cc(-c3ccn[nH]3)ccc2cc1CCN1CCOCC1` [Compound 121], the IC50 in assay [1] (setting [2]) came to 3.03 µM. On human TLR8, the EC50 was greater than 100 µM.

Consider `CN1CCN(CCc2cc3ccc(-c4ccn[nH]4)cc3nc2N)CC1` [Compound 122], for which the IC50 in assay [1] (setting [2]) was found to be 1.87 µM.

With `Nc1nc2cc(-c3ccn[nH]3)ccc2cc1-c1cnc[nH]1` [Compound 123, 3-(1H-imidazol-5-yl)-7-(1H-pyrazol-5-yl)quinolin-2-amine], in assay [1] (setting [2]), the concentration for half-maximal inhibition (IC50) was 3.01 µM.

For `Nc1nc2cc(-c3ccn[nH]3)ccc2cc1-c1cccc(CO)n1` [Compound 125], the concentration for half-maximal inhibition (IC50) in assay [1] (setting [2]) is 1.98 µM.

Turning to `Cc1n[nH]c(-c2cc3ccc(-c4ccn[nH]4)cc3nc2N)n1` [Compound 126], the IC50 in assay [1] (setting [2]) was 3.53 µM.

Take `CN1CCN(c2cc(N)nc3cc(-c4ccn[nH]4)ccc23)CC1` [Compound 130]: in assay [1] (setting [2]), the IC50 was found to be 2.76 µM. For the same compound, the EC50 at human TLR8 was greater than 100 µM.

In the case of `CN(C)CCCNc1cc(N)nc2cc(-c3ccn[nH]3)ccc12` [Compound 168, N4-(3-(dimethylamino)propyl)-7-(1H-pyrazol-5-yl)quinoline-2,4-diamine], the IC50 in assay [1] (setting [2]) was 2.4 µM. Also, the EC50 on human TLR8 is greater than 100 µM.

As for `Nc1cc(NCCCO)c2ccc(-c3ccn[nH]3)cc2n1` [Compound 171], the IC50 in assay [1] (setting [2]) came to 0.38 µM. In addition, at human TLR8, the EC50 was greater than 100 µM.

On to `Nc1cc(OCCCN2CCCC2=O)c2ccc(-c3ccn[nH]3)cc2n1` [Compound 181], for which, in assay [1] (setting [2]), the IC50 was found to be 9.92 µM. At human TLR8, the EC50 was greater than 100 µM.

As to `CN1CCN(CCCCOc2cc(N)nc3cc(-c4ccn[nH]4)ccc23)CC1` [Compound 184], in assay [1] (setting [2]), the 50% inhibitory concentration (IC50) was determined as 7.27 µM. Moreover, on human TLR8, the EC50 was greater than 100 µM.

Take `Nc1cc(NCCC2CCOCC2)c2ccc(-n3cccn3)cc2n1` [Compound 346, 7-(1H-pyrazol-1-yl)-N4-(2-(tetrahydro-2H-pyran-4-yl)ethyl)quinoline-2,4-diamine]: the half-inhibitory concentration (IC50) in assay [1] (setting [2]) is 0.76 µM. In addition, the EC50 on human TLR7 is greater than 100 µM.

For the origin of these results see US12171756B2, “NLRP3 modulators” (Innate Tumor Immunity, Inc., priority 2017, dated 2024).
